Reference: patent US7951799B2, “Lactam compound, a method for producing the same, and a diabetic therapy by administering the same” (Ajinomoto Co., Inc., priority 2005, dated 2011)
Read-outs that look alike come from different tables or passages of the source.

Assays:
C57BL/KsJ-db/dbJcl mice = assay: Evaluation of hypoglycemic action in pathologic mouse; format: in vivo; details: 120 minutes after administration, fasted 20 hours
Description: (§1) C57BL/KsJ-db/dbJcl mice (8 to 9 weeks old) or GK/Jcl rats fasted for 20 hours were administered with the test compound by a single oral administration, blood was collected from the tail vein immediately before administration and 30, 60, 120 and 180 minutes after administration, and the blood glucose level was measured with Fuji DryChem5500 (glucose oxidase method). For the test animals, a group comprised 4 to 5 subjects, and the blood glucose level was determined as mean values. The test compound was administered by dissolving in an aqueous solution of 50% polyethyleneglycol 400, or 100% polyethyleneglycol 400.
(§2) The degrees of hypoglycemia calculated based on the blood glucose levels measured according to the methods described above are shown in Table 5 (mouse) and Table 6 (rat). The degree of hypoglycemia was calculated as the percentage of the difference between the blood glucose level at one time point 120 minutes after administration and blood glucose level immediately before administration, with respect to the blood glucose level immediately before administration.

rat adipocytes = assay: Evaluation of sugar transport activity (2-[14C(U)]-deoxy-D-glucose incorporation); format: cell-based; details: for EC50 (concentration of test compound corresponding to 50% enhancement action of sugar transport): enhancement action of insulin (100 nM) taken as 100%, 30 min preculture at 37° C.
Description: Three male Wistar rats (6 to 7 weeks old) were bled by decapitation, and then laparotomized to extract 3 g of paratesticular fat tissue. […] An amount of 8 mg of collagenase (Type I) was added to carry out digestion treatment for 35 minutes, and undigested fragments were eliminated with a nylon mesh to obtain approximately 3 ml of isolated adipocytes. Collagenase was eliminated by buffer exchange, then, 2% BSA/KRH solution was added for re-suspension to obtain 15 ml of adipocyte suspension. The evaluation of sugar transport activity of the compound of the present invention was carried out with the methods described in the literature (Annual Review of Biochemistry, Volume 55, Page 1059, 1986) as a reference. That is to say, the above adipocyte suspension was distributed into polystyrene test tube, 200 μl each, 100 μl of solution of test substance (10 mg/ml of dimethylsulfoxide solution diluted with KRH) was added, and cultured while shaking at 37° C. for 30 minutes.

MDCK cells [1] = assay: Evaluation of membrane permeability using MDCK cells; details: MDCK monolayer; mucous membrane side (pH 6.5) to basal membrane side (pH 7.4); 37° C.
Description: (§3) The compound of the present invention was evaluated for membrane permeability using MDCK cells, according to the method below.
(§4) An epithelial cell line derived from dog renal tubule, MDCK (Madin Darby Canine Kidney cell line), is cultured for 3 to 4 days in a flask containing 10% FBS-added D-MEM/F12 culture medium (Manufactured by Gibco) at 37° C. in a carbon dioxide incubator. The cells are detached from the flask with a Trypsin/EDTA solution (Manufactured by Gibco), and unicellularized by pipetting. The cells are suspended in the same medium as described above and placed in a transwell (mucous membrane-side well) of a Transwell plate (manufactured by COSTAR) at 2×10^5 cell/well in a volume of 0.1 ml. The transwell is transferred to the basal membrane-side well where 0.6 ml of the same culture medium has been placed, and the cells are cultured at 37° C. in a carbon dioxide incubator for 3 days. After the culture, the culture media in the mucous membrane-side well and the basal membrane-side well are exchanged for the same culture medium, incubated under the same condition for one day. Thus, satisfactory MDCK monolayer culture cells are obtained.
(§5) During in vitro permeation-absorption experiments, the culture media are eliminated from both wells, the mucous membrane-side well is washed with PBS buffer solution (pH 6.5), and the basal membrane-side well is washed with PBS buffer solution (pH 7.4). Next, 0.1 ml of PBS buffer solution (pH6.5) is added to the mucous membrane-side well, 0.6 ml of PBS buffer solution (pH 7.4) is added to the basal membrane-side well, and equilibration is carried out by incubating for 15 minutes in a 37° C. incubator.
(§6) The mucous membrane-side well is exchanged for 0.1 ml of a solution containing the test substance prepared with PBS buffer solution (pH6.5), and time point when the well is transferred to the basal membrane-side well substituted with 0.6 ml of PBS buffer solution (pH7.4) is taken as the permeation-absorption start time, and thereafter, sampling is performed from the basal membrane-side well over time. The amounts of test substance in the samples sampled in this way are measured by HPLC analysis, and the amount of the substance permeated and absorbed from the mucous membrane side to the basal membrane side according to the reaction time is determined to determine the permeation coefficient (cm/sec).

MDCK cells [2] = details: dog
Description: as §3, §4, §5, §6

GK/Jcl rats = assay: Evaluation of hypoglycemic action in pathologic rat; format: in vivo; details: 120 minutes after administration, fasted 20 hours
Description: as §1, §2

[3] = 3 mg/kg single oral administration
[4] = 10 mg/kg single oral administration

| Molecule | Degree of hypoglycemia (C57BL/KsJ-db/dbJcl mice; [3]) [%] | Degree of hypoglycemia (C57BL/KsJ-db/dbJcl mice; [4]) [%] | EC50 (concentration of test compound corresponding to 50% enhancement action of sugar transport) (rat adipocytes) [µg/mL] | Permeation coefficient (MDCK cells [1]) | other results |
| --- | --- | --- | --- | --- | --- |
| O=C1NCC2=C1[C@@H](c1cccc3ccsc13)N(C(=O)CO)[C@@H]1CCCC[C@H]1N2 [Example 8] | 26 | 23 | 0.61 |  |  |
| CSc1ccsc1[C@@H]1C2=C(CNC2=O)N[C@@H]2CCCC[C@H]2N1C(=O)CO [Example 18] | 21 | 41 | 3.1 |  |  |
| O=C1NCC2=C1[C@@H](c1cccc3ccoc13)N(C(=O)CO)[C@@H]1CCCC[C@H]1N2 [Example 1] | 4 | 51 | 0.65 | 8 10^−7 cm/sec |  |
| C=Cc1ccccc1[C@@H]1C2=C(CNC2=O)N[C@@H]2CCCC[C@H]2N1C(=O)CO [Example 19] | 31 | 36 | 0.45 | 10 10^−7 cm/sec |  |
| COCC(=O)N1[C@@H]2CCCC[C@H]2NC2=C(C(=O)NC2)[C@H]1c1cccc2cc[nH]c12 [Example 5] | 28 | 41 | 0.26 | 20 10^−7 cm/sec |  |
| O=C1NCC2=C1[C@@H](c1cccc3ccoc13)N(C(=O)C(F)(F)F)[C@@H]1CCCC[C@H]1N2 [Example 7] |  |  | 1.94 |  |  |
| O=C1NCC2=C1[C@@H](c1cccc3cccnc13)N(C(=O)C(F)F)[C@@H]1CCCC[C@H]1N2 [Example 17] |  |  | 0.59 |  | Permeation coefficient (MDCK cells [2]): 10 10^−7 cm/sec; Degree of hypoglycemia (GK/Jcl rats; [4]): 35% |
| Cc1cc2cccc([C@@H]3C4=C(CNC4=O)N[C@@H]4CCCC[C@H]4N3C(=O)CO)c2o1 [Example 9] |  |  | 0.92 | 40 10^−7 cm/sec | Degree of hypoglycemia (GK/Jcl rats; [3]): 30%; Degree of hypoglycemia (GK/Jcl rats; [4]): 37% |
| O=C1NCC2=C1[C@@H](c1cccc3ccoc13)N(C(=O)C(F)F)[C@@H]1CCCC[C@H]1N2 [Example 6] |  |  | 0.58 | 8 10^−7 cm/sec |  |
| insulin |  |  |  |  | sugar transport enhancement action compared to non-insulin added control group (rat adipocytes; insulin 100 nM): 3-9 times |
| COCC(=O)N1[C@@H]2CCCC[C@H]2NC2=C(C(=O)NC2)[C@H]1c1cccc2cc(C)[nH]c12 [Example 12] |  |  | 0.63 | 20 10^−7 cm/sec | Degree of hypoglycemia (GK/Jcl rats; [4]): 34% |
| O=C1NCC2=C1[C@@H](c1cccc3ccnn13)N(C(=O)CO)[C@@H]1CCCC[C@H]1N2 [Example 14] |  |  | 1.3 |  | Degree of hypoglycemia (GK/Jcl rats; [4]): 36% |
| O=C1NCC2=C1[C@@H](c1cccc3cccnc13)N(C(=O)CO)[C@@H]1CCCC[C@H]1N2 [Example 16] | 12 | 36 | 1.36 |  | Permeation coefficient (MDCK cells [2]): 9 10^−7 cm/sec |
| O=C1NCC2=C1[C@@H](c1cccc3c1OCC3)N(C(=O)CO)[C@@H]1CCCC[C@H]1N2 [Example 13] |  |  | 0.90 |  |  |
| Cc1cc2cccc([C@@H]3C4=C(CNC4=O)N[C@@H]4CCCC[C@H]4N3C(=O)CO)c2[nH]1 [Example 11] |  |  | 0.73 |  |  |
